Like-named read-outs stand apart in the source and are kept apart here.
What was measured:
Rat = settings: cited from earlier work
D. Magnia = test: Acute aquatic toxicity, 48 hr LC50; format: in vivo, daphnia magna
Description: The present invention provides for deicing and anti-icing compositions that are environmentally advantaged.
As aforesaid, there are environmental issues associated with deicers and anti-icers, mostly as a result of the type of FPD used. Freezing point depressants are typically toxic to mammals. Ethylene glycol, in particular, is toxic to mammals (see rat LD50 data, Table 3). LC50, refers to Lethal Concentration, 50%, which is the concentration of a substance at which 50% of the population of test organisms die. Ethylene glycol has also been listed by the EPA as a hazardous air pollutant (HAP).
Another aspect of concern is the toxicity of FPDs on aquatic life and environment. […] (see Table 4, FPD aquatic toxicity data).

Surface tension = format: physicochemical
Description: Surfactants by their very nature can have toxic effects on aquatic organisms. They can coat surfaces or membranes required for the organism's oxygen exchange with the environment. Thus, it is advantageous for surfactants to degrade rapidly in the environment once their useful purpose has been served. Preferred surfactants for use in the present formulations have low aquatic toxicity (Table 4) and are biodegradable (see FIG. 2). Preferably they are soluble or dispersible in water, so that they form homogenous solutions or mixtures with the FPD/water mixtures in the fluid. Also it is preferred that the surfactant reduces the surface tension of the fluid below 35 dynes/cm (see surface tension, Table 6).

In the case of `CC(O)CCO` (centres unmarked) [1,3 Butanediol, reference compound], the “Rat Acute Oral Toxicity (LD50, g/kg)” value (Rat; oral, acute) is given as 18.6 g/kg.
With `OCCO` [Ethylene glycol, reference compound] the “Acute tox. to D. Magnia, ppm (48 hr LC50)” value (from here on “Acute tox. to D. Magnia, ppm”) (D. Magnia) was 77,000 ppm.
With `CC(O)CO` (centres unmarked) [Propylene glycol, reference compound] the “Acute tox. to D. Magnia, ppm” value (D. Magnia) was 55,000 ppm.
In the case of `OCCOCCOCCO` [Triethylene glycol], the “Acute tox. to D. Magnia, ppm” value (D. Magnia) is given as 66,000 ppm and the “Rat Acute Oral Toxicity (LD50, g/kg)” value (Rat; in vivo, po) is given as 17 g/kg.
For `O` [Water], the “Surface Tension (dynes/cm)” value (Surface tension) was 75 dynes/cm.
With PEG-12 oleate the “Acute tox. to D. Magnia, ppm” value (D. Magnia) was 13,000 ppm.
With PEG-20 sorbitan oleate the “Acute tox. to D. Magnia, ppm” value (D. Magnia) was 46,000 ppm.
